This is an account of results in patent publication US20040138311A1, “Medicament containing an effector of the glutathione metabolism together with $g(a)-lipoic acid for treating diabetes mellitus” (priority 2001, published 2004).

The structures appear in SMILES notation.

Holding throughout (type): cell-based, human
Assay [1] deals with lymphocytes (peripheral immune cells). In words: Membrane-bound thiol expression of thiol-depleted peripheral immune cells (CMTMR flow cytofluorimetry). The conditions noted are these: α-lipoic acid 50 μM, captopril 10 μM, combination at the same concentrations. The protocol:
Peripheral immune cells from healthy donors (n=9) were isolated from the peripheral blood. The major fraction of the resulting total population of mononuclear cells regularly represents lymphocytes with a relative percentage of approximately 90%, depending on the donor. 10% of the mononuclear cells are represented by monocytes. The mononuclear cells obtained were absorbed in special cell culture media and incubated in a gasifying incubation cabinet at 37° C., a relative humidity of 98% and 5% relative air-CO2 content. […] To test the influence of the combinations used according to the invention on the thiol status of thiol-deficient immune cells, these cells were artificially thiol-depleted. This process was carried out using proven methods by cultivation in thiol-deficient media (RPMI 1603). Comparative cultures using complete media (RPMI) 1640) were used to define the best possible normal value under the culture conditions. The expression of membrane-bound thiol groups was also determined using flow cytofluorimetry. In this case, chloromethyltetramethyl rhodamine (CMTMR) was used as thiol conjugate under the conditions of a blocked membrane potential and an inhibited diffusion capacity of the cells. The fluorescence intensity of the fluorochrome molecules bound to the cell membrane is in turn proportional to the number of thiol groups on the cell surface. The results obtained with this experimental investigation of the influence of the combinations according to the invention on the expression of cell membrane bound thiols are presented in FIG. 2 for the combinations of α-lipoic acid and ambroxol (FIG. 2a) and α-lipoic acid and enalapril (FIG. 2b). The following table presents the results for the combination of α-lipoic acid and captopril.

For assay [2], the system named is peritoneal macrophages. Kind of assay: Phagocytosis capacity of peritoneal macrophages (cytofluorimetric test with opsonized fluorochrome-marked bacteria). The conditions noted are these: treatment time of 6 days. Here is the method: Peritoneal macrophages were isolated using a method analogous to the method described in Example 3 and cultivated ex vivo. The phagocytosis capacity was determined by a cytofluorimetric test on the single-cell level. The macrophages were thereby co-cultivated with opsonized and fluorochrome-marked bacteria. The number of bacteria absorbed during a defined period was determined quantitatively by means of the fluorescence intensity in the macrophages and was used as a measurement for their phagocytosis capacity. The influence of the combinations used according to the invention on the phagocytosis capacity of the peritoneal macrophages after a treatment time of 6 days is presented in the following table.

The test system of assay [3] is peritoneal macrophages. Kind of assay: Stability of intracellular thiol restitution in peritoneal macrophages in the dialysis model. The conditions noted are these: after approximately 4 days in the dialysis model. Here is the method: The combinations of thiol-restored peritoneal macrophages used according to the invention were extracted from this test system after 6 days and cultivated over a period of 14 days in a dialysis model. For this purpose the peritoneal macrophages were adapted to matrices that were coated with collagen IV and placed in contact with conventional high-glucose dialysis solution 3 times a day for 60 minutes each time. In this case, the model was used for the induction of a combined hyperglycemic/osmotic stress. […] The membrane expression of thiol was determined on the basis of the median fluorescence intensity (mfi) of the specimen (3000 cells/measurement) after coupling to a chlormethyl-fuorochrome derivative. […] Here, too, there is a mono-effect of α-lipoic acid, although it lasts only briefly and after approximately 4 days in the dialysis model is only approximately 50% as effective as the combinations.

Turning to `O=C(O)CCCCC1CCSS1` (stereo not drawn) [α-lipoic acid], the Membrane-resistant thiol expression came to 2.37 ± 0.45 mfiBeads/Ratio in assay [1] (length of culture 0 d); 2.65 ± 0.39 mfiBeads/Ratio in assay [1] (length of culture 1 d); 2.43 ± 0.52 mfiBeads/Ratio in assay [1] (length of culture 2 d); 2.31 ± 0.36 mfiBeads/Ratio in assay [1] (length of culture 3 d); 2.26 ± 0.20 mfiBeads/Ratio in assay [1] (length of culture 4 d); 2.19 ± 0.13 mfiBeads/Ratio in assay [1] (length of culture 6 d). Besides, the Membrane-resistant thiol expression in assay [1] (length of culture 8 d) was found to be 1.93 ± 0.20 mfiBeads/Ratio; in assay [1] (length of culture 10 d), 1.63 ± 0.16 mfiBeads/Ratio; in assay [1] (length of culture 12 d), 1.32 ± 0.21 mfiBeads/Ratio; in assay [1] (length of culture 14 d), 1.34 ± 0.20 mfiBeads/Ratio. The “Phagocytosis rate higher than that of the untreated control by a factor of” value with peritoneal macrophages [2] worked out at 1.85. Also, the “Effectiveness relative to the combinations” value with peritoneal macrophages [3] was “approximately 50%”.
